Columns and labels:
[1] = test system: monoclonal antibody CHA255; experiment: Determination of hapten-antibody dissociation rates; format: binding, BALB/c mice; details: 22°C; indium complex of hapten from CHA255 after 100 fold excess of indium-115 loaded hapten
Experimental: Hapten-antibody dissociation rates were determined using monoclonal antibody CHA255, prepared as described in Example 2A, by measuring the quantity of ¹¹¹In³⁺ chelate released from the antibody hapten complex as a function of time after addition of a 100 fold excess (over antibody binding sites) of indium-115 loaded hapten. Thus, for each hapten, a 700 »l solution was prepared containing: antibody at a concentration of 160 nM; indium loaded hapten, trace labeled with ¹¹¹In (total concentration = 160 nM); normal human serum albumin at a total concentration of 1.5 mg/mL; and isotonic phosphate buffered saline, (10 mM PO₄²⁻, 150 mM NaCl, pH 7.2). Indium-115 loaded hapten was added to a final Concentration of […]. Reactions were stirred by placing the sample containers ir a rack mounted on a vortexer head.
At various times after addition of the excess hapten, […] portions of the reaction solutions were transferred to Centrifree tubes (Amicon Corperation, Danvers, Massachusetts) and centrifuged at 1500xg for eight to ten minutes. The reaction time was taken to be the time between addition of the excess hapten and the time the centrifuge reached the desired velocity. Six timepoints, each in duplicate, were obtained over a range of about two reaction half-lives for each rate constant determination. A 200 »l portion from each centrifuged and uncentrifuged solution was then counted for ¹¹¹In. The relative concentration of free hapten was taken to be the ratio of counts in the centrifuged solution to the uncentrifuged solution at each timepoint. Times were recorded to the nearest tenth of a minute.
Room temperature rate constants were measured without the aid of a constant temperature bath. The ambient temperature remained at 22°±1 C.
Rate constants and standard deviations were obtained from a plot of the logarithm of relative complex concentration vs. time. Data were analyzed using the linear regression module of the RS/1 Program (BBN Software Products Corporation, Cambridge, Massachusetts).
Control samples were included in each experiment to determine: A) that the initial condition of 100% of labeled hapten bound to antibody was met, and B) that in the absence of antibody, 100% of counts were able to penetrate the Centrifree membrane. […]

T-380 tumors = experiment: Hapten biodistribution, premix protocol with bifunctional antibody ECH037.2; format: in vivo, nude mice; set-up: TOTAL RECOV: unit not given here; details: for % DOSE PER GRAM, KIDNEY / % DOSE PER GRAM, LIVER / % DOSE PER GRAM, TUMOR / FECES / TOTAL RECOV / URINE / % DOSE PER GRAM, BLOOD / TUMOR/BLOOD: premix with 20 µg ECH037.2; for % DOSE PER GRAM, BLOOD: 111In-labeled hapten i.v.; for TUMOR/BLOOD: ratio; for %Dose per Gram, Blood / %Dose per Gram, Tumor: premix with 20 µg ECH037.2 (Table VIII); for Percent Injected Dose in Feces: premix protocol (Table VI)
Experimental: Two protocols were used for examining the biodistribution of the derivatized haptens in the presence of the bifunctional antibody ECH037.2. In a premix protocol, ECH037.2 and the derivatized hapten were combined prior to injection in the animals. In the prelocalization protocol, ECH037.2 was injected into the animals, and the antibody was allowed to prelocalize for 24 hours prior to injection of the radiolabeled hapten.
Biodistribution studies were performed in nude mice carrying subcutaneous implants of the human colon carcinoma cell line T-380 which expresses the carcinoembryonic antigen (CEA) recognized by ECH037.2. Briefly, Balb/C Nu/Nu mice were injected subcutaneously with a minced preparation of T-380 tumor implants and maintained for approximately two weeks, or until the tumor implant had grown to a size of approximately 0.5 grams as described by Hagan, P.L., et al. J. Nuc. Med., 26 1418-1423 (1985). Mice were kept in a sterile environment to prevent complications due to bacterial or viral infections. Biodistributions were performed as described by Halpern, S., et al., Cancer Res. 43, 5347-5355 (1983). Briefly, the radiolabeled haptens were injected intravenously in […], and the pharmacokinetics were evaluated at several time points post-injection. At these times, mice were sacrificed and weighed. Organs were removed, their weight recorded, and each organ was then washed in sterile PBS, pH 7.0, and fixed in formalin solution. Samples of blood, urine and feces also were collected and their weight similarly recorded. The organs, or a portion thereof, were transferred to clean tubes and their radioactive content was determined in a well-type gamma-counter.
Relative radioactive content of each organ was expressed as a percentage of injected dose per organ.
To indium-label the haptens of the invention 10 »l of 0.1 mM ligand was combined with X »l of ¹¹¹InCl₃ (in 50 mM HCl) and (x+10) »l of 0.26 M ammonium citrate, pH 6.0. X is calculated by the following equation: X = (200 »Ci)/(A »Ci/»l) [formula] where A is the specific activity of the ¹¹¹In.
The labeling was done in an acid-washed microfuge tube. After combining all of the components above, the solution was vortexed and allowed to stand at room temperature for 15 minutes.
Incorporation of the ¹¹¹In into the chelating agent was determined by TLC on silica in a methanol/aqueous ammonium acetate solvent system as described by Meares, et al. (Anal. Biochem., 142, 68-75 (1984)). Greater than 95% incorporation of the radioactivity into the chelate was required for the sample to be submitted for a biodistribution assay.
Prior to injection the ¹¹¹In-labeled hapten was diluted into freshly prepared isotonic sodium bicarbonate (1.39% w/v) containing 1 mg/ml normal human serum albumin (Buminate, 25% solution, Travenol Laboratories, Glendale, California) to which the bifunctional antibody had been added. The final composition of the solution was 0.2 mg/ml ECH037.2, 0.5 »M chelate, 0.1 »Ci/»l ¹¹¹In, all in a volume of 2.0 ml. For the biodistribution studies, 100 »l of the solution was injected into the tail vein of each animal.

SMILES	% DOSE PER GRAM, KIDNEY (T-380 tumors; 24 hours) [% DOSE PER GRAM]	% DOSE PER GRAM, LIVER (T-380 tumors; 24 hours) [% DOSE PER GRAM]	% DOSE PER GRAM, TUMOR (T-380 tumors; 24 hours) [% DOSE PER GRAM]	FECES (T-380 tumors; 24 hours)	TOTAL RECOV (T-380 tumors; 24 hours)	URINE (T-380 tumors; 24 hours)	% DOSE PER GRAM, BLOOD (T-380 tumors; 24 hours) [% DOSE PER GRAM]	TUMOR/BLOOD (T-380 tumors; 24 hours)	Percent Injected Dose in Feces (T-380 tumors; 24 hrs.) [Percent Injected Dose]	% DOSE PER GRAM, KIDNEY (T-380 tumors; 48 hours) [% DOSE PER GRAM]	% DOSE PER GRAM, LIVER (T-380 tumors; 48 hours) [% DOSE PER GRAM]	% DOSE PER GRAM, TUMOR (T-380 tumors; 48 hours) [% DOSE PER GRAM]	FECES (T-380 tumors; 48 hours)	TOTAL RECOV (T-380 tumors; 48 hours)	URINE (T-380 tumors; 48 hours)	% DOSE PER GRAM, BLOOD (T-380 tumors; 48 hours) [% DOSE PER GRAM]	TUMOR/BLOOD (T-380 tumors; 48 hours)	Percent Injected Dose in Feces (T-380 tumors; 48 hrs.) [Percent Injected Dose]	t1/2, Dissociation Half-Lives [1] [h]	further results
CC(=O)NC(CCCCNC(=S)Nc1ccc(CC(CN(CC(=O)O)CC(=O)O)N(CC(=O)O)CC(=O)O)cc1)C(N)=O (centres unmarked) [BALTUBE]	3.6	4.0	13.0	6.8% of total injected dose	52.0	16.3% of total injected dose	11.0	1.18	8.5	1.9	2.2	12.9	13.8% of total injected dose	57.8	26.5% of total injected dose	5.2	2.48	13.8	1.52	–
O=C(O)CN(CC(=O)O)CC(Cc1ccc(NC(=S)Nc2ccccc2)cc1)N(CC(=O)O)CC(=O)O (centres unmarked) [PHTUBE]	2.9	3.6	12.4	13.9% of total injected dose	57.2	20.3% of total injected dose	8.9	1.39	13.9	1.7	2.3	10.6	21.7% of total injected dose	62.4	24.5% of total injected dose	5.4	1.96	27.1	1.25	–
O=C(O)CCNC(=S)Nc1ccc(CC(CN(CC(=O)O)CC(=O)O)N(CC(=O)O)CC(=O)O)cc1 (centres unmarked) [PATUBE]	2.2	3.3	10.6	5.0% of total injected dose	53.7	23.6% of total injected dose	12.2	0.87	5.0	1.7	2.4	9.8	8.9% of total injected dose	61.7	36.0% of total injected dose	7.6	1.29	8.9	1.46	–

Now from value to molecule, other results behind:

% DOSE PER GRAM, KIDNEY (T-380 tumors; 24 hours) [% DOSE PER GRAM]	% DOSE PER GRAM, LIVER (T-380 tumors; 24 hours) [% DOSE PER GRAM]	% DOSE PER GRAM, TUMOR (T-380 tumors; 24 hours) [% DOSE PER GRAM]	FECES (T-380 tumors; 24 hours)	TOTAL RECOV (T-380 tumors; 24 hours)	URINE (T-380 tumors; 24 hours)	% DOSE PER GRAM, BLOOD (T-380 tumors; 24 hours) [% DOSE PER GRAM]	TUMOR/BLOOD (T-380 tumors; 24 hours)	Percent Injected Dose in Feces (T-380 tumors; 24 hrs.) [Percent Injected Dose]	% DOSE PER GRAM, KIDNEY (T-380 tumors; 48 hours) [% DOSE PER GRAM]	% DOSE PER GRAM, LIVER (T-380 tumors; 48 hours) [% DOSE PER GRAM]	% DOSE PER GRAM, TUMOR (T-380 tumors; 48 hours) [% DOSE PER GRAM]	FECES (T-380 tumors; 48 hours)	TOTAL RECOV (T-380 tumors; 48 hours)	URINE (T-380 tumors; 48 hours)	% DOSE PER GRAM, BLOOD (T-380 tumors; 48 hours) [% DOSE PER GRAM]	TUMOR/BLOOD (T-380 tumors; 48 hours)	Percent Injected Dose in Feces (T-380 tumors; 48 hrs.) [Percent Injected Dose]	SMILES	t1/2, Dissociation Half-Lives [1] [h]	further results
2.4	4.0	8.5	4.1% of total injected dose	48.2	23.7% of total injected dose	8.0	1.06	4.1	1.1	1.6	6.5	9.8% of total injected dose	69.5	48.8% of total injected dose	3.8	1.71	9.9	NC(=S)Nc1ccc(CC(CN(CC(=O)O)CC(=O)O)N(CC(=O)O)CC(=O)O)cc1 (centres unmarked) [TUBE]	1.4	%Dose per Gram, Blood (T-380 tumors; 24 hrs. post-injection): 8.0 %Dose per Gram; %Dose per Gram, Tumor (T-380 tumors; 24 hrs. post-injection): 8.5 %Dose per Gram; %Dose per Gram, Blood (T-380 tumors; 48 hrs. post-injection): 3.8 %Dose per Gram; %Dose per Gram, Tumor (T-380 tumors; 48 hrs. post-injection): 6.5 %Dose per Gram; %Dose per Gram, Blood (T-380 tumors; 72 hrs. post-injection): 1.7 %Dose per Gram; %Dose per Gram, Tumor (T-380 tumors; 72 hrs. post-injection): 5.3 %Dose per Gram
1.7	3.4	5.3	16.8% of total injected dose	63.8	22.0% of total injected dose	9.0	0.59	16.8	1.2	3.8	5.7	26.5% of total injected dose	69.3	27.0% of total injected dose	5.8	0.98	26.5	CCCCNC(=S)Nc1ccc(CC(CN(CC(=O)O)CC(=O)O)N(CC(=O)O)CC(=O)O)cc1 (centres unmarked) [BUTUBE]	1.51	amount of hapten in the tumor (T-380 tumors; 24 hrs., premix protocol): 5.3 percent injected dose/gram; injected material excreted in the feces (T-380 tumors; 48 hrs. post injection, premix protocol): 26.5% of the injected material; amount of hapten in the tumor (T-380 tumors; 48 hrs., premix protocol): 5.7 percent injected dose/gram

Source: patent publication EP0327365B1, “Improvements in or relating to modified haptens useful as imaging and therapeutic agents” (HYBRITECH INCORPORATED, priority 1988, dated 1989)
